Assay results: paper PMC8617944, “Preclinical Pharmacokinetics and Acute Toxicity in Rats of 5-{[(2E)-3-Bromo-3-carboxyprop-2-enoyl]amino}-2-hydroxybenzoic Acid: A Novel 5-Aminosalicylic Acid Derivative with Potent Anti-Inflammatory Activity” (Molecules, 2021)
“Also recorded” adds a separate entry of the source. Read-outs that look alike come from different tables or passages of the source.

Key:
[1] = Pharmacokinetic profiles after p.o., i.p. and i.v. administration; type: in vivo, Wistar rats; conditions: for absorption half-life: read-out: t1/2a, absorption half-life (converted); for Cmax: read-out: Cmax, maximum plasma concentration; for k el: read-out: Ke, elimination rate constant (converted); for MRT: read-out: MRT, mean residence time; for Tmax: read-out: tmax, time to maximum plasma concentration (converted); for Ka, absorption rate constant: non-compartmental
Procedure: On the same day as C1 administration, the rats (three groups, n = 6) were previously cannulated for compound administration by the p.o., i.p., and i.v. routes. A 24 G catheter was placed in the right lateral tail vein for blood collection. A first group of rats received a single dose of 50 mg/kg applied p.o. with a 20 G gavage needle. A dose of 75 mg/kg of C1 was injected i.p. into the rats in the second group. A single dose of 50 mg/kg was given i.v. to the third group by means of another catheter previously placed in the left lateral tail vein. The doses used in this study were selected based on previous pharmacokinetic studies reported in rats for 5-ASA [60] or for derivatives of this compound [61]. Animals were provided with the standard diet 4 h after dosing. […] The volume of blood removed was supplemented with an equal volume of 0.9% sodium chloride solution. The blood samples were centrifuged at 8000 rpm for 15 min to harvest 100 μL of plasma.
Plasma samples were processed immediately. Briefly, 450 µL of acetonitrile was added to 100 µL of plasma and vortexed for 5 min. Subsequently, 450 µL of methanol was added, and the sample was vortexed again, followed by centrifugation to precipitate the proteins. Finally, 10 µL of the supernatant were used for evaluation of the plasma concentration of C1 by RP-HPLC with the UV detection method, previously validated for the pharmacokinetic and complementary assays herein performed.
The plasma concentration–time data were plotted. […] Pharmacokinetic parameters of C1 were calculated on Kinetica 5.0 software (Adept Scientific Ltd), including the maximum plasma concentration (Cmax), time to maximum plasma concentration (tmax), elimination half-life (t1/2e), the area under the plasma concentration-time curve from time zero to the last measurable concentration (AUC0-t), the area under the plasma concentration-time curve from time zero to infinity (AUCtot), mean residence time (MRT), clearance (CL), and apparent volume of distribution (Vd).

[2] = Blood/plasma partitioning (BP ratio); type: in vitro ADME, rats; conditions: rat whole blood, 37 °C, 4 h
Procedure: Appropriate amounts of C1 stock solution at 10 mg/mL were spiked into whole blood to obtain samples (prepared in triplicate) at a final concentration of 1, 5, and 10 and 20 μg/mL (in a final volume of 600 μL), to be incubated at 37 °C for 4 h. Plasma was harvested from blood samples by centrifuging at 8000 rpm for 15 min, and then the concentration of C1 was established using the RP-HPLC method and interpolating the response area into a standard curve prepared with C1 and blank plasma. The BP ratio was calculated by dividing 5 and 10 µg/mL, respectively, by the concentration found in plasma separated from blood samples. The concentration of C1 in blood cells is assumed to be equal to its unbound concentration in plasma.

[3] = tested on: 12-O-tetradecanoylphorbol acetate (TPA)-induced mouse ear edema; parameters: method as in ref 32, 33 = [32]; doi:10.1016/j.arabjc.2016.12.026; 32. Cabrera Pérez L.C. Gutiérrez Sánchez M. Mendieta Wejebe J.E. Hernández Rodríguez M. Fragoso Vázquez M.J. Salazar J.R. Correa Basurto J. Padilla Martínez I.I. Rosales Hernández M.C. Novel 5-aminosa || [33]; 33. Correa Basurto J. Rosales Hernández M.C. Mendieta Wejebe J.E. Trujillo Ferrara J.G. Padilla Martínez I.I. Ramírez Durán L.A. Alemán González Duhart D. Síntesis de un derivado del ácido 5-aminosali; conditions: cited from earlier work
[4] = parameters: method as in ref 32 = [32]; doi:10.1016/j.arabjc.2016.12.026; 32. Cabrera Pérez L.C. Gutiérrez Sánchez M. Mendieta Wejebe J.E. Hernández Rodríguez M. Fragoso Vázquez M.J. Salazar J.R. Correa Basurto J. Padilla Martínez I.I. Rosales Hernández M.C. Novel 5-aminosa; conditions: Osiris Property Server Explorer; cited from earlier work
[5] = Wistar, rat, plasma, ip, 75 mg/kg, i.p. 75 mg/kg, n = 6
[6] = Wistar, rat, plasma, ip, 75 mg/kg, plasma, i.p. 75 mg/kg, n = 6, read-out: Average Concentration
[7] = Wistar, rat, plasma, ip, 75 mg/kg, plasma, i.p. 75 mg/kg, individual rats, read-out: Concentration (µg/mL), Rat 1-6
[8] = Wistar, rat, plasma, ip, i.p. 75 mg/kg, rats
[9] = Wistar, rat, plasma, iv, 50 mg/kg, i.v. 50 mg/kg, n = 6
[10] = Wistar, rat, plasma, iv, 50 mg/kg, plasma, i.v. 50 mg/kg, n = 6, read-out: Average Concentration
[11] = Wistar, rat, plasma, iv, 50 mg/kg, plasma, i.v. 50 mg/kg, individual rats, read-out: Concentration (µg/mL), Rat 1-6
[12] = Wistar, rat, plasma, iv, i.v. 50 mg/kg, rats
[13] = Wistar, rat, plasma, po, 50 mg/kg, i.g. (p.o.) 50 mg/kg, n = 6
[14] = Wistar, rat, plasma, po, 50 mg/kg, plasma, i.g. (p.o.) 50 mg/kg, individual rats, read-out: Concentration (µg/mL), Rat 1-6
[15] = Wistar, rat, plasma, po, 50 mg/kg, plasma, i.g. (p.o.) 50 mg/kg, n = 6, read-out: Average Concentration
[16] = Wistar, rat, plasma, po, p.o. 50 mg/kg, rats
[17] = two-compartment model, Kinetica 5.0

## O=C(/C=C(/Br)C(=O)O)Nc1ccc(O)c(C(=O)O)c1 [Compound C1, 5-{[(2E)-3-bromo-3-carboxyprop-2-enoyl]amino}-2-hydroxybenzoic acid]
[1]; [5]
  concentration at 5 min: 15900 ng/mL
  concentration at 10 min: 17600 ng/mL
  concentration at 30 min: 19900 ng/mL
  concentration at 45 min: 17700 ng/mL
  concentration at 60 min: 15200 ng/mL
  concentration at 90 min: 11200 ng/mL
  concentration at 120 min: 9000 ng/mL
  concentration at 180 min: 5200 ng/mL
  concentration at 240 min: 2900 ng/mL
[1]; Wistar, rat, plasma, ip, 75 mg/kg, i.p. 75 mg/kg, rats
  absorption half-life: 1.3 ± 0.5 h
[1]; Wistar, rat, plasma, ip, 75 mg/kg, i.p. 75 mg/kg, rats, read-out: t1/2e, elimination half-life (converted)
  half-life: 1.4 ± 0.2 h
[1]; [6]
  concentration at 20 min: 19.8 µg/mL
  concentration at 300 min: 0 µg/mL
  concentration at 360 min: 0 µg/mL
  concentration at 540 min: 0 µg/mL
  concentration at 720 min: 0 µg/mL
[1]; [7]
  concentration at 300 min: 0 µg/mL
  concentration at 360 min: 0 µg/mL
  concentration at 540 min: 0 µg/mL
  concentration at 720 min: 0 µg/mL
[1]; [8]
  Cmax: 22000 ± 1000 ng/mL
  k el: 0.000139 s⁻¹
  MRT: 3.1 ± 0.9 h
  Tmax: 0.55 h
[1]; [9]
  concentration at 5 min: 10500 ng/mL
  concentration at 10 min: 7800 ng/mL
  concentration at 30 min: 5300 ng/mL
  concentration at 45 min: 4200 ng/mL
  concentration at 60 min: 4000 ng/mL
  concentration at 90 min: 3400 ng/mL
  concentration at 120 min: 2200 ng/mL
  concentration at 180 min: 1500 ng/mL
  concentration at 240 min: 1400 ng/mL
[1]; Wistar, rat, plasma, iv, 50 mg/kg, i.v. 50 mg/kg, rats, read-out: t1/2e, elimination half-life (converted)
  half-life: ~0.9 h
[1]; [10]
  concentration at 20 min: 6 µg/mL
  concentration at 300 min: 1.2 µg/mL
  concentration at 360 min: 0.756 µg/mL
  concentration at 540 min: 0 µg/mL
  concentration at 720 min: 0 µg/mL
[1]; [11]
  concentration at 540 min: 0 µg/mL
  concentration at 720 min: 0 µg/mL
[1]; Wistar, rat, plasma, iv, i.v. 50 mg/kg, rats, read-out: CL, clearance
  clearance: 24 ± 5 mL/min
[1]; Wistar, rat, plasma, iv, i.v. 50 mg/kg, rats, read-out: Cp^0, initial plasma concentration
  C0: 11000 ± 1900 ng/mL
[1]; [12]
  k el: 0.000222 s⁻¹
  MRT: 1.7 ± 0.4 h
[1]; Wistar, rat, plasma, iv, i.v. 50 mg/kg, rats, read-out: Vd, volume of distribution
  Vd: 5.2 ± 0.9 L/kg
[1]; Wistar, rat, plasma, oral, 50 mg/kg, p.o. 50 mg/kg vs i.v. 50 mg/kg, rats, read-out: absolute oral bioavailability
  bioavailability: ~77%
[1]; [13]
  concentration at 5 min: 2200 ng/mL
  concentration at 10 min: 2200 ng/mL
  concentration at 30 min: 2500 ng/mL
  concentration at 45 min: 2100 ng/mL
  concentration at 60 min: 2100 ng/mL
  concentration at 90 min: 1800 ng/mL
  concentration at 120 min: 1500 ng/mL
  concentration at 180 min: 1000 ng/mL
  concentration at 240 min: 665 ng/mL
[1]; Wistar, rat, plasma, po, 50 mg/kg, p.o. 50 mg/kg, rats
  absorption half-life: 1.4 ± 0.3 h
[1]; Wistar, rat, plasma, po, 50 mg/kg, p.o. 50 mg/kg, rats, read-out: t1/2e, elimination half-life (converted)
  half-life: > 2.5 h
[1]; [14]
  concentration at 20 min: 2.2 µg/mL
  concentration at 600 min: 0 µg/mL
  concentration at 720 min: 0 µg/mL
[1]; [15]
  concentration at 20 min: 2.6 µg/mL
  concentration at 300 min: 0.5 µg/mL
  concentration at 360 min: 0.34 µg/mL
  concentration at 540 min: 0.136 µg/mL
  concentration at 600 min: 0 µg/mL
  concentration at 720 min: 0 µg/mL
[1]; [16]
  Cmax: 2800 ± 100 ng/mL
  k el: 0.000111 s⁻¹
  MRT: 1.7 ± 0.2 h
  Tmax: 0.55 h
[1]; Wistar, rat, plasma, two-compartment model, Kinetica 5.0, read-out: elimination half-life α (t1/2α)
  half-life: 0.267 h
[1]; Wistar, rat, plasma, two-compartment model, Kinetica 5.0, read-out: elimination half-life β (t1/2β) (converted)
  half-life: 3 h
[1]; i.p. 75 mg/kg, rats
  AUCtot, area under the plasma concentration-time curve from time zero to infinity: 2780 ± 69 µg·min/mL
  Ka, absorption rate constant: 1.4 ± 0.2 h⁻¹
[1]; i.v. 50 mg/kg, rats
  AUCtot, area under the plasma concentration-time curve from time zero to infinity: 806 ± 72 µg·min/mL
[1]; p.o. 50 mg/kg, rats
  AUCtot, area under the plasma concentration-time curve from time zero to infinity: 618 ± 63 µg·min/mL
  Ka, absorption rate constant: 0.9 ± 0.1 h⁻¹
[1]; p.o. 50 mg/kg, rats, 50 mg/kg
  t1/2e, elimination half-life: 2.5 ± 0.6 h
[1]; [17]
  K12: 0.018 min⁻¹
  K21: 0.019 min⁻¹
  α: 0.042 min⁻¹
[2]; 5 µg/mL
  BP Ratio ± SD: 0.54 ± 0.02
[2]; 10 µg/mL
  BP Ratio ± SD: 0.40 ± 0.01
[3]
  anti-inflammatory activity: anti-inflammatory agent in mice; also recorded: comparable to that of indomethacin; also recorded: exhibited anti-inflammatory activity
[4]
  predicted toxicity index: low toxicity index
